In article PMC7279002, “Novel 3′-Substituted-1′,2′,4′-Oxadiazole Derivatives of 18βH-Glycyrrhetinic Acid and Their O-Acylated Amidoximes: Synthesis and Evaluation of Antitumor and Anti-Inflammatory Potential In Vitro and In Vivo” (International Journal of Molecular Sciences, 2020):
Entries after “also recorded” stand apart in the source; their conditions may differ.

Assays:
HeLa cells [1] = experiment: Apoptosis assay by flow cytometry (annexin V-FITC/PI); format: cell-based, human; settings: 48 h
Description: HeLa cells were seeded in 24-well plates at density of 5 × 10^4 cells per well and incubated under standard conditions for 24 h. Next, the cells were treated by compound 5f at 7 or 10 µM for a subsequent 48 h, followed by dissociation of cell monolayers into single cells by TrypLE Express (Gibco, Taastrup, Denmark) - and washing with cold PBS. Thereafter, cells were resuspended in binding buffer at concentration of 10^6 cells/mL. After double staining with Annexin V-FITC and propidium iodide (PI) from an Annexin V-FITC Apoptosis Detection Kit (Millipore, Bedford, MA, USA), cells were analyzed using a NovoCyte Flow Cytometer (ACEA Biosciences Inc., San Diego, CA, USA). For each sample, 10,000 events were acquired.

HeLa cells [2] = experiment: Cell motility by xCelligence (CIM-plate); format: cell-based, human; settings: 0.5 µM, 48 h, nontoxic concentration
Description: HeLa cells were seeded in tetraplicate at 2 × 10^4 cells per well in the upper chamber of CIM-plates, in the presence or absence of 5f at 0.5 µM. To stimulate cell migration, the lower chamber of the CIM-plate contained 10% FBS as chemoattractant. The cell index (electrical impedance) was monitored by the Real-Time Cell Analyzer Dual Plates (RTCA DP) xCelligence System (ACEA Biosciences, San Diego, CA, USA) every 1 h for 48 h.

B16 melanoma = experiment: Metastatic model of murine B16 melanoma in C57Bl/6 mice; format: in vivo; settings: five injections; for decrease of the numbers of surface metastases in the lungs: day 14
Description: (§1) To generate a metastatic model of tumor progression, 10^5 B16 melanoma cells suspended in 0.2 mL of saline buffer were inoculated into the lateral tail vein of C57Bl/6 mice. On day 4 after tumor transplantation, mice were divided into three groups (n = 9 per group): (1) mice without treatment (control); (2) mice who received intraperitoneal (i.p.) injections of 10% Tween-80 (vehicle); and (3) mice who received i.p. injections of 5f in 10% Tween-80 at a dose of 50 mg/kg. The treatment was carried out three times a week. The total number of injections was five. Mice were sacrificed on day 14 after B16 melanoma transplantation and the lungs were collected for calculation of surface metastases.
To study the antimetastatic action of 5f, evaluation of surface metastases in lungs of B16 melanoma bearing mice was carried out. Surface metastases in the lungs were counted using a binocular microscope. Inhibition of metastases development was assessed using the metastasis inhibition index (MII), calculated according to the formula: MII=(∑n(N¯control−Nn)×100% /N¯control)/n, where N is the number of surface metastases and n is the number of mice in the analyzed group. The MII of the control group was taken as 0% and the MII reflecting the absence of metastases was taken as 100%.

[3] = test system: activated caspases in HeLa cells; experiment: Metacaspases activity assay (FITC-VAD-FMK); format: cell-based, human; settings: dose-dependent
Description: The activity of caspases was determined by using a CaspACE^TM FITC-VAD-FMK (Promega, Madison, WI, USA). Briefly, HeLa cells were cultured in 24-well plates for 24 h under standard conditions and treated by 5f at 7 or 10 µM for 48 h. The cells were collected and incubated with fluorophore-conjugated pancaspase inhibitor FITC-VAD-FMK in darkness for 30 min at room temperature. After incubation, the cells were centrifuged, washed twice with PBS, and analyzed by flow cytometry. For each sample, 10,000 events were acquired.

HeLa cells [4] = experiment: Colony-forming assay; format: cell-based, human; settings: 14 days
Description: HeLa cells were seeded in 96-well plates in tetraplicates at a density of 100 cells/well and treated by 5f (0.25, 0.5 µM) for 14 days under standard conditions. Then cell colonies were fixed with 4% paraformaldehyde, stained with crystal violet dye (0.1% w/v), and photographed using a Vilber Lourmat transilluminator (Marne La Vallee, France). The percentage of area covered by cell colonies was calculated using a ColonyArea ImageJ plugin [91].

[5] = Toxicity assessment in B16 melanoma-bearing mice; format: in vivo; settings: five injections, 50 mg/kg i.p.
Description: as §1
During the experiment, general status of the animals and body weight were monitored. At the end of the experiment, organs were collected and organ indexes were calculated as (organ weight / body weight) × 100%.

HeLa cells [6] = experiment: Mitochondrial membrane potential (JC-1, flow cytometry); format: cell-based, human; settings: 48 h, JC-1, HeLa
Description: HeLa cells were cultured in 24-well plates for 24 h under standard conditions and treated by 5f at 7 or 10 µM for a subsequent 48 h. After the treatment, the cells were collected and resuspended at 10^6 cells/mL in PBS-contained JC-1 (5 µg/mL). After 30 min of incubation under standard conditions, the cells were centrifuged, washed with PBS, and analyzed using the NovoCyte Flow Cytometer (ACEA Biosciences Inc., San Diego, CA, USA). In total, 10,000 events were acquired for each sample.

[7] = test system: caspase-3/7 in HeLa cells; experiment: Executioner caspases-3/7 activity assay (Caspase-Glo 3/7); format: cell-based, human; settings: 48 h
Description: The activity of caspase-3/7 in HeLa cells was evaluated using a Caspase-Glo® 3/7 assay kit (Promega, Madison, WI, USA) according to manufacturer’s instructions. […] After incubation, 100 µL of Caspase-Glo® 3/7 Reagent was added to each wells, the plate was carefully shaken on a plate mixer, then incubated for 30 min in darkness at room temperature. The luminescence was measured using a luminometer (CLARIOstar plate reader (BMG Labtech, Ortenberg, Germany)).

CC1(C)C2CC[C@]3(C)C(C(=O)C=C4[C@@H]5C[C@@](C)(c6nc(-c7ccccn7)no6)CC[C@]5(C)CC[C@]43C)[C@@]2(C)CC[C@@H]1O (stereo partly drawn) [Compound 5f, 30-nor-3β-hydroxy-11-oxo-20-(3′-(pyridin-2′′-yl)-1′,2′,4′-oxadiazol-5′-yl)-18βH-olean-12-en]
early apoptotic cells (quadrant Q4-4) (HeLa cells [1]; 7 µM): 12.5% | late apoptotic cells (quadrant Q4-2) (HeLa cells [1]; 7 µM): 60.7% | early apoptotic cells (quadrant Q4-4) (HeLa cells [1]; 10 µM): 8.1% | late apoptotic cells (quadrant Q4-2) (HeLa cells [1]; 10 µM): 66.5% | necrotic cells (quadrant Q4-1) (HeLa cells [1]; 10 µM): 14.2% | effect on motility of HeLa cells (HeLa cells [2]): statistically significant suppressed the motility of HeLa cells | mice with kidney metastases (B16 melanoma; 50 mg/kg i.p.): 2/9 | mice with liver metastases (B16 melanoma; 50 mg/kg i.p.): 1/9 | decrease of the numbers of surface metastases in the lungs (B16 melanoma; 50 mg/kg i.p., compared to untreated control animals): 4.5 times | decrease of the numbers of surface metastases in the lungs (B16 melanoma; 50 mg/kg i.p., compared to vehicle-treated animals): 3.4 times | metastasis inhibition index (MII) (B16 melanoma; 50 mg/kg i.p., relative to untreated control): 77.7 ± 4.7% | suppression of metastasis growth compared to the vehicle-treated control (B16 melanoma; 50 mg/kg): 70% | metacaspase activation (FITC-VAD-FMK fluorescence) [3]: significantly increased the intensity of FITC fluorescence | suppression of colony formation compared to the control (HeLa cells [4]; 0.5 µM): three-fold | effect on clonogenic characteristics (HeLa cells [4]; lower concentration (0.25 µM)): had no effect on the clonogenic characteristics of HeLa cells | survival during the experiment [5]: all 5f-treated mice were alive | toxic effects in mice (organ indexes) ([5]; 50 mg/kg): did not cause toxic and unspecific immunomodulatory effects; also recorded: without systemic toxicity | cells with collapsed membrane potential (gate P3) (HeLa cells [6]; 7 µM): 72.5% | cells with collapsed membrane potential (gate P3) (HeLa cells [6]; 10 µM): 85.2% | increase of caspase-3/7 activity in comparison with control ([7]; 5 µM): 1.3 times | increase of caspase-3/7 activity in comparison with control ([7]; 7 µM): 1.9 times
